Experimental data: the supplement of paper PMC10307832

compound: COc1cc(-c2nn([C@H]3CC[C@H](N4CCN(C(C)=O)CC4)CC3)c3ncnc(N)c23)ccc1NC(=O)c1cc2ccccc2n1C + O=C(c1cc(Cc2n[nH]c(=O)c3ccccc23)ccc1F)N1CCN(C(=O)C2CC2)CC1 [Olaparib] (partner 8 µM); test: relative viability (nuclei count vs DMSO), 5 days (fraction); higher = more cells survive; conditions: first compound 0.0128 µM
Outline: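 Lung cancer cell lines were seeded in 1536-well plates and dosed by pin tool the next day, with either a single drug or a fixed anchor-drug dose combined with five library-drug doses (not always all listed) spaced in √10 steps. Five days later, one step fixed the cells and stained their nuclei (final 0.05% Triton X-100, 1% formaldehyde, 1 ug/ml Hoechst), and nuclei were counted on 4× images. Relative viability is the nuclei count in treated wells divided by the count in vehicle wells, and each value is the median of duplicate plates.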

| Cell Line | relative viability |
| --- | --- |
| NCI-H2342 | 0.511 |
| NCI-H727 | 0.674 |
| NCI-H1650 | 0.822 |
| EBC-1 | 0.679 |
| NCI-H1703 | 0.386 |
| NCI-H1993 | 0.997 |
| SW 1573 | 0.439 |
| NCI-H838 | 0.799 |
| LCLC-103H | 0.851 |
| NCI-H520 | 0.388 |
| NCI-H2126 | 0.952 |
| EMC-BAC-2 | 0.52 |
| NCI-H2085 | 0.817 |
| Calu-6 | 0.581 |
| HCC-366 | 0.394 |
| NCI-H1666 | 0.763 |
| NCI-H596 | 0.722 |
| LK-2 | 0.779 |
| NCI-H2087 | 0.644 |
| NCI-H1648 | 0.94 |
| SK-MES-1 | 0.79 |
| H3255 | 0.616 |
| COR-L23 | 0.347 |
| COR-L 105 | 0.798 |
| IA-LM | 0.871 |
| LOU-NH91 | 0.924 |

| Cell Line | relative viability |
| --- | --- |
| ChaGo-K-1 | 0.488 |
| NCI-H2170 | 0.72 |
| NCI-H2405 | 0.908 |
| HOP-62 | 0.657 |
| HCC-44 | 1.1 |
| A549 | 0.302 |
| NCI-H522 | 0.558 |
| LU99A | 0.284 |
| BEN | 1.1 |
| HARA | 0.873 |
| SW 900 | 1 |
| HCC-78 | 0.938 |
| NCI-H322M | 0.818 |
| LCLC-97TM1 | 0.455 |
| NCI-H2009 | 0.706 |
| A-427 | 0.768 |
| NCI-H441 | 0.554 |
| NCI-H661 | 0.817 |
| NCI-H1734 | 0.621 |
| NCI-H460 | 0.48 |
| NCI-H2347 | 0.561 |
| SK-LU-1 | 0.411 |
| NCI-H1395 | 0.437 |
| 201T | 0.899 |
| NCI-H1915 | 0.273 |
| HCC-827 | 0.657 |

| Cell Line | relative viability |
| --- | --- |
| LXF-289 | 1.17 |
| NCI-H23 | 0.323 |
| NCI-H1299 | 0.978 |
| NCI-H647 | 0.646 |
| CAL-12T | 0.682 |
| NCI-H1651 | 0.19 |
| EPLC-272H | 0.666 |
| NCI-H2228 | 0.711 |
| NCI-H1792 | 0.481 |
| NCI-H1355 | 0.798 |
| NCI-H3122 | 0.683 |
| NCI-H1437 | 0.689 |
| NCI-H1755 | 0.888 |
| NCI-H2023 | 0.519 |
| HCC-15 | 0.745 |
| NCI-H1793 | 0.989 |
| PC-14 | 0.231 |
| EKVX | 1.01 |
| LC-2-ad | 0.783 |
| NCI-H1944 | 0.431 |
| NCI-H1975 | 0.819 |
| RERF-LC-KJ | 1.03 |
| ABC-1 | 0.6 |
| NCI-H358 | 0.587 |
| NCI-H650 | 0.418 |
| PC-3 [JPC-3] | 1.15 |

same assay, conditions: first compound 0.04048 µM

| Cell Line | relative viability |
| --- | --- |
| NCI-H2342 | 0.423 |
| NCI-H1650 | 0.894 |
| EBC-1 | 0.746 |
| NCI-H1703 | 0.283 |
| NCI-H1993 | 1.11 |
| SW 1573 | 0.414 |
| NCI-H838 | 0.807 |
| LCLC-103H | 0.79 |
| NCI-H520 | 0.398 |
| NCI-H2126 | 0.961 |
| EMC-BAC-2 | 0.645 |
| NCI-H2085 | 0.891 |
| Calu-6 | 0.611 |
| HCC-366 | 0.328 |
| NCI-H1666 | 0.793 |
| NCI-H596 | 0.787 |
| LK-2 | 0.674 |
| NCI-H1648 | 0.928 |
| SK-MES-1 | 0.873 |
| H3255 | 0.579 |
| COR-L23 | 0.41 |
| COR-L 105 | 0.676 |
| IA-LM | 0.877 |
| LOU-NH91 | 1.01 |
| ChaGo-K-1 | 0.452 |

| Cell Line | relative viability |
| --- | --- |
| NCI-H2170 | 0.615 |
| NCI-H2405 | 0.719 |
| HOP-62 | 0.533 |
| HCC-44 | 1.09 |
| A549 | 0.47 |
| NCI-H522 | 0.593 |
| LU99A | 0.29 |
| BEN | 1.05 |
| HARA | 0.923 |
| SW 900 | 1.17 |
| HCC-78 | 0.933 |
| NCI-H322M | 0.801 |
| LCLC-97TM1 | 0.501 |
| NCI-H2009 | 0.714 |
| A-427 | 0.737 |
| NCI-H441 | 0.51 |
| NCI-H661 | 0.843 |
| NCI-H1734 | 0.562 |
| NCI-H460 | 0.47 |
| NCI-H2347 | 0.597 |
| SK-LU-1 | 0.6 |
| NCI-H1395 | 0.466 |
| 201T | 0.896 |
| NCI-H1915 | 0.285 |
| HCC-827 | 0.572 |

| Cell Line | relative viability |
| --- | --- |
| LXF-289 | 1.08 |
| NCI-H23 | 0.321 |
| NCI-H1299 | 1.01 |
| NCI-H647 | 0.567 |
| CAL-12T | 0.763 |
| NCI-H1651 | 0.177 |
| EPLC-272H | 1.01 |
| NCI-H2228 | 0.948 |
| NCI-H1792 | 0.532 |
| NCI-H1355 | 0.831 |
| NCI-H1437 | 0.636 |
| NCI-H1755 | 0.922 |
| NCI-H2023 | 0.505 |
| HCC-15 | 0.77 |
| NCI-H1793 | 1.08 |
| PC-14 | 0.349 |
| EKVX | 0.972 |
| LC-2-ad | 0.835 |
| NCI-H1944 | 0.409 |
| NCI-H1975 | 0.978 |
| RERF-LC-KJ | 0.946 |
| ABC-1 | 0.835 |
| NCI-H358 | 0.513 |
| NCI-H650 | 0.453 |
| PC-3 [JPC-3] | 1.35 |

same assay, conditions: first compound 0.128 µM

| Cell Line | relative viability |
| --- | --- |
| NCI-H2342 | 0.388 |
| NCI-H727 | 0.819 |
| NCI-H1650 | 0.804 |
| EBC-1 | 0.546 |
| NCI-H1703 | 0.386 |
| NCI-H1993 | 0.885 |
| SW 1573 | 0.412 |
| NCI-H838 | 0.741 |
| LCLC-103H | 0.615 |
| NCI-H520 | 0.286 |
| NCI-H2126 | 0.656 |
| EMC-BAC-2 | 0.473 |
| NCI-H2085 | 0.804 |
| Calu-6 | 0.516 |
| HCC-366 | 0.361 |
| NCI-H1666 | 0.793 |
| NCI-H596 | 0.681 |
| LK-2 | 0.6 |
| NCI-H2087 | 0.616 |
| NCI-H1648 | 1.23 |
| SK-MES-1 | 0.672 |
| H3255 | 0.558 |
| COR-L23 | 0.367 |
| COR-L 105 | 0.594 |
| IA-LM | 1.03 |
| LOU-NH91 | 0.902 |

| Cell Line | relative viability |
| --- | --- |
| ChaGo-K-1 | 0.409 |
| NCI-H2170 | 0.595 |
| NCI-H2405 | 0.756 |
| HOP-62 | 0.366 |
| HCC-44 | 0.916 |
| A549 | 0.465 |
| NCI-H522 | 0.617 |
| LU99A | 0.286 |
| BEN | 1.02 |
| HARA | 0.78 |
| SW 900 | 0.845 |
| HCC-78 | 0.768 |
| NCI-H322M | 0.693 |
| LCLC-97TM1 | 0.326 |
| NCI-H2009 | 0.674 |
| A-427 | 0.782 |
| NCI-H441 | 0.622 |
| NCI-H661 | 0.724 |
| NCI-H1734 | 0.649 |
| NCI-H460 | 0.312 |
| NCI-H2347 | 0.56 |
| SK-LU-1 | 0.431 |
| NCI-H1395 | 0.442 |
| 201T | 0.767 |
| NCI-H1915 | 0.262 |
| HCC-827 | 0.574 |

| Cell Line | relative viability |
| --- | --- |
| LXF-289 | 1.11 |
| NCI-H23 | 0.339 |
| NCI-H1299 | 0.914 |
| NCI-H647 | 0.514 |
| CAL-12T | 0.811 |
| NCI-H1651 | 0.205 |
| EPLC-272H | 0.729 |
| NCI-H2228 | 0.567 |
| NCI-H1792 | 0.416 |
| NCI-H1355 | 0.756 |
| NCI-H3122 | 0.64 |
| NCI-H1437 | 0.628 |
| NCI-H1755 | 0.832 |
| NCI-H2023 | 0.414 |
| HCC-15 | 0.719 |
| NCI-H1793 | 0.731 |
| PC-14 | 0.283 |
| EKVX | 0.774 |
| LC-2-ad | 0.658 |
| NCI-H1944 | 0.444 |
| NCI-H1975 | 0.794 |
| RERF-LC-KJ | 0.928 |
| ABC-1 | 0.665 |
| NCI-H358 | 0.526 |
| NCI-H650 | 0.407 |
| PC-3 [JPC-3] | 1.08 |

same assay, conditions: first compound 1.28 µM

| Cell Line | relative viability |
| --- | --- |
| NCI-H2342 | 0.371 |
| NCI-H727 | 0.78 |
| NCI-H1650 | 0.731 |
| EBC-1 | 0.654 |
| NCI-H1703 | 0.184 |
| NCI-H1993 | 0.891 |
| SW 1573 | 0.393 |
| NCI-H838 | 0.471 |
| LCLC-103H | 0.773 |
| NCI-H520 | 0.265 |
| NCI-H2126 | 0.74 |
| EMC-BAC-2 | 0.5 |
| NCI-H2085 | 0.653 |
| Calu-6 | 0.424 |
| HCC-366 | 0.252 |
| NCI-H1666 | 0.827 |
| NCI-H596 | 0.593 |
| LK-2 | 0.385 |
| NCI-H2087 | 0.722 |
| NCI-H1648 | 0.515 |
| SK-MES-1 | 0.587 |
| H3255 | 0.491 |

| Cell Line | relative viability |
| --- | --- |
| COR-L23 | 0.395 |
| COR-L 105 | 0.478 |
| IA-LM | 0.961 |
| LOU-NH91 | 0.831 |
| ChaGo-K-1 | 0.328 |
| NCI-H2170 | 0.541 |
| NCI-H2405 | 0.453 |
| HOP-62 | 0.478 |
| HCC-44 | 1.27 |
| A549 | 0.271 |
| NCI-H522 | 0.522 |
| LU99A | 0.263 |
| BEN | 0.848 |
| HARA | 0.445 |
| SW 900 | 0.574 |
| HCC-78 | 0.456 |
| NCI-H322M | 0.691 |
| LCLC-97TM1 | 0.441 |
| NCI-H2009 | 0.69 |
| A-427 | 0.754 |
| NCI-H441 | 0.624 |
| NCI-H661 | 0.763 |

| Cell Line | relative viability |
| --- | --- |
| NCI-H1734 | 0.539 |
| NCI-H460 | 0.386 |
| NCI-H2347 | 0.505 |
| SK-LU-1 | 0.402 |
| NCI-H1395 | 0.434 |
| 201T | 0.623 |
| NCI-H1915 | 0.248 |
| HCC-827 | 0.48 |
| LXF-289 | 0.982 |
| NCI-H23 | 0.292 |
| NCI-H1299 | 1.01 |
| NCI-H647 | 0.373 |
| CAL-12T | 0.697 |
| NCI-H1651 | 0.165 |
| EPLC-272H | 0.589 |
| NCI-H2228 | 0.459 |
| NCI-H1792 | 0.416 |
| NCI-H1355 | 0.684 |
| NCI-H3122 | 0.621 |
| NCI-H1437 | 0.595 |
